According to PMC2806030, “Inhibition of mammalian S6 kinase by resveratrol suppresses autophagy” (Aging (Albany NY), 2009):

Legend:
Test in all cases: biochemical
Parameters in all cases: Upstate KinaseProfiler in vitro kinase activity assay, per cent of DMSO control
Details in all cases: read-out: Activity (% of Control)
PKBα(h) = target: T1, PKBα(h) (Homo sapiens, UniProt P31749)
T1 construct: gene AKT1
Method: (§1) Kinase profile and kinase assay. A Kinase profile against 100 kinases listed for resveratrol at 20 μM was generated utilizing Upstate's KinaseProfiler™ service. Assay protocols for each kinase are available from Upstate (Lake Placid, NY). In vitro kinase assay was performed as described previously. Briefly, HEK293 cells were transfected with HA-S6K1 wt, HA-S6K1 K100R, or vector as indicated. Cells were treated with 1 μg/ml insulin for 10 minutes prior to harvesting in PBS + 0.5% NP-40 + protease and phosphatase inhibitors. 125 μg of lysate per sample was immunoprecipitated using 0.5 μg/sample of anti-HA High-Affinity (Roche, Basel Switzerland). Beads from immunoprecipitations were washed three times in lysis buffer and once in kinase buffer, and kinase assays were performed with recombinant GST-S6 as substrate (1 μg per assay). In the indicated lanes varying doses of resveratrol or DMSO control were added to the reaction prior to addition of the GST-S6 substrate. All samples were subjected to SDS-PAGE, and 32P incorporation was quantified by using a Bio-Rad (Hercules, CA) Phosphor-Imager and subsequent analysis with ImageJ (NIH).  Figure 4. Resveratrol inhibits S6K1 in vitro. (A) Structural similarity between resveratrol and quercetin, a known kinase inhibitor. (B) Kinase inhibition profile for resveratrol at 20 μM obtained using KinaseProfiler™ (Upstate). Dashed line represents 100% activity as compared to control. Black filled-in bar on the graph indicates S6K1. Complete data set is provided in Supplementary Table 1. Error bars represent s.d.m. (C) Phosphorylation of recombinant GST-tagged S6 by immunoprecipitated HA-S6K1 under increasing concentrations of resveratrol (Res). Autoradiograph depicts S6K1 phosphorylation of GST-S6. (D) Average of three separate kinase assay experiments as performed in (C). Densitometry was performed using NIH ImageJ. Error bars represent s.e.m. […] Therefore, we hypothesized that the effect of resveratrol on autophagy could be related to inhibition of one or more upstream kinases. To test this, we performed an in vitro kinase screen and determined an inhibition profile for resveratrol. […] With the exception of S6K1, these kinases play primary roles in the hematopoietic system, and were thus viewed as unlikely to have been responsible for the effect we were studying. […] On the other hand, S6K1 is known to play a requisite role in the regulation of autophagy in Drosophila, making it a promising candidate for the in vivo target of resveratrol that is responsible for inhibition of autophagy.

CHK2(h) = target: T2, CHK2(h) (Homo sapiens, UniProt O96017)
T2 construct: gene CHEK2
Method: as §1

SGK(h) = target: T3, SGK(h) (Homo sapiens, UniProt O00141)
T3 construct: gene SGK1
Method: as §1

CDK7/cyclinH/MAT1(h) = CDK7/cyclinH/MAT1(h) (Homo sapiens, UniProt P50613)
Method: as §1

Aurora-A(h) = target: T4, Aurora-A(h) (Homo sapiens, UniProt O14965)
T4 construct: gene AURKA
Method: as §1

CDK3/cyclinE(h) = CDK3/cyclinE(h) (Homo sapiens, UniProt Q00526)
Method: as §1

MSK1(h) = target: T5, MSK1(h) (Homo sapiens, UniProt O75582)
T5 construct: gene RPS6KA5
Method: as §1

PAK3(h) = PAK3(h) (Homo sapiens, UniProt O75914)
Method: as §1

PAK6(h) = PAK6(h) (Homo sapiens, UniProt Q9NQU5)
Method: as §1

PKG1ß(h) = target: T6, PKG1ß(h) (Homo sapiens, UniProt Q13976)
T6 construct: gene PRKG1; isoform beta
Method: as §1

JNK2α2(h) = target: T7, JNK2α2(h) (Homo sapiens, UniProt P45984)
T7 construct: gene MAPK9; isoform alpha2
Method: as §1

GSK3α(h) = target: T8, GSK3α(h) (Homo sapiens, UniProt P49840)
T8 construct: gene GSK3A
Method: as §1

PDGFRß(h) = target: T9, PDGFRß(h) (Homo sapiens, UniProt P09619)
T9 construct: gene PDGFRB
Method: as §1

LIMK1(h) = LIMK1(h) (Homo sapiens, UniProt P53667)
Method: as §1

CDK5/p25(h) = target: T10, CDK5/p25(h) (Homo sapiens, UniProt Q00535)
T10 construct: p25
Method: as §1

PDGFRα(h) = target: T11, PDGFRα(h) (Homo sapiens, UniProt P16234)
T11 construct: gene PDGFRA
Method: as §1

Ros(h) = target: T12, Ros(h) (Homo sapiens, UniProt P08922)
T12 construct: gene ROS1
Method: as §1

SAPK3(h) = target: T13, SAPK3(h) (Homo sapiens, UniProt P53778)
T13 construct: gene MAPK12
Method: as §1

T8 sequence (P49840 whole entry): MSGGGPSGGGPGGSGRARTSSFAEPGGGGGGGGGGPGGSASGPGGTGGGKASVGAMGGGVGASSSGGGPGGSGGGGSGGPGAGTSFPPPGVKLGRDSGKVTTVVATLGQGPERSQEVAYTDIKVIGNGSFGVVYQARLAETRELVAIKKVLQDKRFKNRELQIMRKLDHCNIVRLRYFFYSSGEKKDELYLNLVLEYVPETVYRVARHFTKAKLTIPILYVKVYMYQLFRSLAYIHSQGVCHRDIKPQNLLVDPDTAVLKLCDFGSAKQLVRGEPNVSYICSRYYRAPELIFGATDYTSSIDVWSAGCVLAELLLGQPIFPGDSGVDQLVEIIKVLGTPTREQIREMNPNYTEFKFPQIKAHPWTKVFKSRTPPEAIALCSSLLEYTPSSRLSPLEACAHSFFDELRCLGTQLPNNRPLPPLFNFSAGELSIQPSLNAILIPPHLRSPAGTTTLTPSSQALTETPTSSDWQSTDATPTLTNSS
Chain of LIMK1(h) (P53667 whole entry): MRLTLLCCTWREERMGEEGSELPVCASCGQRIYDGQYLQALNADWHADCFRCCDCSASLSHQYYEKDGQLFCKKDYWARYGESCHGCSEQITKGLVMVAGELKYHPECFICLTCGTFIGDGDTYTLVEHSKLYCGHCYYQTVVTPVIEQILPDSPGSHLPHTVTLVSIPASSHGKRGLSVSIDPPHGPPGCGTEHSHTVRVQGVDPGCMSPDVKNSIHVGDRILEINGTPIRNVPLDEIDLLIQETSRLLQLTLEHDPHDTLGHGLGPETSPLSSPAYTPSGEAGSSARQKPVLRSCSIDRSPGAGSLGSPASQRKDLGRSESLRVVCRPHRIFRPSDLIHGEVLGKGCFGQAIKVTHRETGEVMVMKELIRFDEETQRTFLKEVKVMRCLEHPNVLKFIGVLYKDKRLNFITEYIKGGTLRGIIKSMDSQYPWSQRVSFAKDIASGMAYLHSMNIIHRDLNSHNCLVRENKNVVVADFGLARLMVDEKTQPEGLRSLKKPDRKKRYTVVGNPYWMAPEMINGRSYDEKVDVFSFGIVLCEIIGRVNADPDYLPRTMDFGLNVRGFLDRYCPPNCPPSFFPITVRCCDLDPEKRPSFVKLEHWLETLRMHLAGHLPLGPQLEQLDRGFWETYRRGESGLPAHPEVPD
T1 sequence (P31749 whole entry): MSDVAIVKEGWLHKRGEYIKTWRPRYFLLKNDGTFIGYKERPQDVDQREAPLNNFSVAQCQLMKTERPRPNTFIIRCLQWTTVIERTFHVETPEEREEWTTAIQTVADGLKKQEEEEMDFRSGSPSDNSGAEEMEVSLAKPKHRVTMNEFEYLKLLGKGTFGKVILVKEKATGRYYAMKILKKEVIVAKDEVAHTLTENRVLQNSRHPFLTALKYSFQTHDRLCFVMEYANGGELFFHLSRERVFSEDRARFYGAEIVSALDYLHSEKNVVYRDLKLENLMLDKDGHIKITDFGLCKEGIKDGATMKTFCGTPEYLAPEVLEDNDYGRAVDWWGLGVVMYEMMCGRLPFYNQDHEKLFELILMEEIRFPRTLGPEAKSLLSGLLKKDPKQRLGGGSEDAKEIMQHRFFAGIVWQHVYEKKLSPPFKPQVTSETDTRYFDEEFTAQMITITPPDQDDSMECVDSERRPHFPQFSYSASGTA
T4 sequence (O14965 whole entry): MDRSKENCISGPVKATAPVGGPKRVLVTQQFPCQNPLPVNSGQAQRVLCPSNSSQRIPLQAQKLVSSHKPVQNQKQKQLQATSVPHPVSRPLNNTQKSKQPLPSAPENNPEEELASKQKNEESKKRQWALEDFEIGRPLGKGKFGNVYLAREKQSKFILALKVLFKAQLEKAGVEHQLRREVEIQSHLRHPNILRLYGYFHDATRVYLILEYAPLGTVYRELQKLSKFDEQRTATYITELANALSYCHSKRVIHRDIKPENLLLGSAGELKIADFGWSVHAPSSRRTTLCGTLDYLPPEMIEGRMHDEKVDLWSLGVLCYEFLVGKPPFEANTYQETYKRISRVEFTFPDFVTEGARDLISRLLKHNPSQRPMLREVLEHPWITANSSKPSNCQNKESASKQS
Chain of CDK7/cyclinH/MAT1(h) (P50613 whole entry): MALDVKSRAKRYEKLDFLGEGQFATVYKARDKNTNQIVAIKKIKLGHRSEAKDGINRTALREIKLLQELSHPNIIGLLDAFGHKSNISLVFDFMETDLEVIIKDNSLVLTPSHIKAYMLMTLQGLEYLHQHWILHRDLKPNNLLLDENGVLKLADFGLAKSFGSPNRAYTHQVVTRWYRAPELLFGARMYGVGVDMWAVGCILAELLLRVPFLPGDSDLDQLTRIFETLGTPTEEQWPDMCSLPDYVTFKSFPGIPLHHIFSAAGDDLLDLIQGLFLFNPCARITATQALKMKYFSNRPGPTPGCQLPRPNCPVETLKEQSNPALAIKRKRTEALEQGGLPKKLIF
Chain of CDK7/cyclinH/MAT1(h) (P51946 whole entry partner): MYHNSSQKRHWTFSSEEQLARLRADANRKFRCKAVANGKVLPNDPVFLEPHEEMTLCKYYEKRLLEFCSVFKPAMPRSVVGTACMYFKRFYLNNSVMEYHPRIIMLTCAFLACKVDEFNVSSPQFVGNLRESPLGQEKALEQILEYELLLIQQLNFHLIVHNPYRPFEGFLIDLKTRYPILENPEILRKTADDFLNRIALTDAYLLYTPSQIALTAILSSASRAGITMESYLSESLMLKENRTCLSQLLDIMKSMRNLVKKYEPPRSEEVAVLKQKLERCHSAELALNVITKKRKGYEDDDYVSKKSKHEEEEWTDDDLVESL
Chain of CDK7/cyclinH/MAT1(h) (P51948 whole entry partner): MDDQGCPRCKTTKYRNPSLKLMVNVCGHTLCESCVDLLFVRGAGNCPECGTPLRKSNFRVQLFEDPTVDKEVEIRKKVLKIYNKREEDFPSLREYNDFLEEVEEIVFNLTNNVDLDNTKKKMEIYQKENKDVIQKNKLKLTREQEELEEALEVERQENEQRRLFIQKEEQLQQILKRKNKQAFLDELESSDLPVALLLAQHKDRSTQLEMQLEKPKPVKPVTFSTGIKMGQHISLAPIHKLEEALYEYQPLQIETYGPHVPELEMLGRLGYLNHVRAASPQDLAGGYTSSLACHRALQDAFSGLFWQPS
T13 sequence (P53778 whole entry): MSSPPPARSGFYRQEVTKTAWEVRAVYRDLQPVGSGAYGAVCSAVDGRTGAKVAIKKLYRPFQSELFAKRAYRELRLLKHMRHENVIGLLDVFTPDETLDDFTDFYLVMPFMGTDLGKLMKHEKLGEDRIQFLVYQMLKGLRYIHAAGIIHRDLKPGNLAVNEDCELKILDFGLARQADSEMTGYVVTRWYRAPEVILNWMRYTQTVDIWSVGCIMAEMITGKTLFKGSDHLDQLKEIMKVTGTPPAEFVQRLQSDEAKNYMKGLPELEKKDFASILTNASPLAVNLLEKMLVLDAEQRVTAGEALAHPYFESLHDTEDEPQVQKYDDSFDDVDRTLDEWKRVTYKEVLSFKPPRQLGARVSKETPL
T10 sequence (Q00535 whole entry): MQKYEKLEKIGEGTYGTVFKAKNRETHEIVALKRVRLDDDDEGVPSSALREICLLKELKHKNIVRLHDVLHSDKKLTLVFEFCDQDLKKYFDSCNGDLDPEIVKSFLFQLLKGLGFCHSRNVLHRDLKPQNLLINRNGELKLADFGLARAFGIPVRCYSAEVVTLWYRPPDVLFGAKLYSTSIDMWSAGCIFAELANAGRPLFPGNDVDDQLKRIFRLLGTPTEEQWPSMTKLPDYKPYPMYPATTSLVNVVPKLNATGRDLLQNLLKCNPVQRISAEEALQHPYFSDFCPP
T10 sequence (Q15078 whole entry partner): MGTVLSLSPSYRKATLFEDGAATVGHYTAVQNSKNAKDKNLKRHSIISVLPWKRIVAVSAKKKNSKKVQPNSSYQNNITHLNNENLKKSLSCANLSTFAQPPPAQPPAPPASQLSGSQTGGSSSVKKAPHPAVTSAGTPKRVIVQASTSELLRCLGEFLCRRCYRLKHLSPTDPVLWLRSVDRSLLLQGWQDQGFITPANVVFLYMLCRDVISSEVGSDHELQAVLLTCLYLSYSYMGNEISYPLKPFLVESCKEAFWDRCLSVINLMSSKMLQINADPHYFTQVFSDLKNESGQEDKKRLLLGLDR
T5 sequence (O75582 whole entry): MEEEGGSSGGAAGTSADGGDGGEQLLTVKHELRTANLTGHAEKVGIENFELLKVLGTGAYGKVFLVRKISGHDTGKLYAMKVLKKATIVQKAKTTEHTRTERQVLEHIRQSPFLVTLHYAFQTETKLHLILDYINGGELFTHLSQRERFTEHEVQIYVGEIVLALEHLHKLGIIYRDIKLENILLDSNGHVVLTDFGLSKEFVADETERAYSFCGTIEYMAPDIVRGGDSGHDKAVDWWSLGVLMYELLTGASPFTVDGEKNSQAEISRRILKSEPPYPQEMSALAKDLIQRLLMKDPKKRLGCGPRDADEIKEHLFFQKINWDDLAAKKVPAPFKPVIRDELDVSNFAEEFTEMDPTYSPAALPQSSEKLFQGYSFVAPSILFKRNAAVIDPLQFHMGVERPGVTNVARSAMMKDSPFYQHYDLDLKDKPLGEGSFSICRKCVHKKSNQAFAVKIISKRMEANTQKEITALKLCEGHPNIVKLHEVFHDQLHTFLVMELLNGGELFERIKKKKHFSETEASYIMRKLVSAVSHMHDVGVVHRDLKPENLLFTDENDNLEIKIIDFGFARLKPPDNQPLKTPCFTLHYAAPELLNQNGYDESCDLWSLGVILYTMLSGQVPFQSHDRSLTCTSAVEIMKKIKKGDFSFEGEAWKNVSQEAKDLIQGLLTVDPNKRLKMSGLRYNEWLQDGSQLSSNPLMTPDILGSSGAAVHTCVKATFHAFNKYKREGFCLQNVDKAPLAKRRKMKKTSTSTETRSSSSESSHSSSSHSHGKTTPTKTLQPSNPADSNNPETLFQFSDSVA

## Oc1ccc(/C=C/c2cc(O)cc(O)c2)cc1 [Res, resveratrol]
PKBα(h)
  remaining activity at 20 µM: 94 ± 2%
CHK2(h)
  remaining activity at 20 µM: 59 ± 6%
SGK(h)
  remaining activity at 20 µM: 86 ± 13%
CDK7/cyclinH/MAT1(h)
  remaining activity at 20 µM: 95 ± 1%
Aurora-A(h)
  remaining activity at 20 µM: 65 ± 1%
CDK3/cyclinE(h)
  remaining activity at 20 µM: 75 ± 4%
MSK1(h)
  remaining activity at 20 µM: 58 ± 1%
PAK3(h)
  remaining activity at 20 µM: 46%
PAK6(h)
  remaining activity at 20 µM: 103 ± 3%
PKG1ß(h)
  remaining activity at 20 µM: 56 ± 4%
JNK2α2(h)
  remaining activity at 20 µM: 110 ± 4%
GSK3α(h)
  remaining activity at 20 µM: 79 ± 4%
PDGFRß(h)
  remaining activity at 20 µM: 119 ± 2%
LIMK1(h)
  remaining activity at 20 µM: 84 ± 4%
CDK5/p25(h)
  remaining activity at 20 µM: 64 ± 4%
PDGFRα(h)
  remaining activity at 20 µM: 114 ± 2%
Ros(h)
  remaining activity at 20 µM: 102 ± 4%
SAPK3(h)
  remaining activity at 20 µM: 110 ± 5%
